These results are taken from PMC10065799, “High-throughput profiling of sequence recognition by tyrosine kinases and SH2 domains using bacterial peptide display” (eLife, 2023).

Assay [1] has as its target c-Src kinase domain (Homo sapiens, UniProt P12931). The assay can be described thus: pTyr-Var library bacterial peptide display kinase screen (enrichment scores). The class given is biochemical.
The subject of assay [2] is EPHB2 kinase domain. The assay is described as above. Format: biochemical, human. The following applies: sheet EPHB2.
Assay [3] deals with T1, c-Abl kinase domain (Mus musculus, UniProt P00520).
T1 sequence (P00520 242-493 limits assumed): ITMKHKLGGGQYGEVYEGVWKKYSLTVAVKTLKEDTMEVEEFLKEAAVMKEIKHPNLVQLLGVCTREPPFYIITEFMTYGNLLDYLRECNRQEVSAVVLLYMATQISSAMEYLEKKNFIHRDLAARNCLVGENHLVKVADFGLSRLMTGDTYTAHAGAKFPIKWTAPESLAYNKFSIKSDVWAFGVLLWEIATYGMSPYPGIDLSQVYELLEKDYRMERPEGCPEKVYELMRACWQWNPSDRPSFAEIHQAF
Described as above. Format: biochemical.

Assay [4] has as its system EPHB1 kinase domain. The assay is described as above. The following applies: for Screen (variant relative to reference peptide, measured in the pTyr-Var library screen): sheet "EPHB1", variant seq vs reference seq, bacterial peptide display enrichment; for Screen: sheet EPHB1, effect of the variant peptide relative to its reference peptide in the pTyr-Var library screen (enrichment scores). Format: biochemical, human.

The test system of assay [5] is Fer kinase domain. The description is as above. The class given is biochemical, mouse. The following applies: sheet "Fer".
Assay [6] has as its target human c-Src SH2 domain (residues 143-250) (human, UniProt P12931-1 143-250, biotin on the Avi tag (co-expression with the biotin ligase BirA)). The assay can be described thus: fluorescence polarisation; competition: unlabeled phosphopeptide serially diluted against 30 nM fluorescent peptide and 240 nM (1.5 x KD) c-Src SH2; same buffer; 25 °C; cubic binding equation. The following applies: both partners purified.

Where [7] appears, read: sheet "Src", variant peptide versus its reference peptide in the pTyr-Var library screen.
Setting [8] is: effect of variant peptide relative to its reference peptide in the pTyr-Var library screen (enrichment scores).
[9] abbreviates: effect of the variant relative to its reference peptide in the pTyr-Var library screen.
The mark [10] stands for this setting: value of the variant peptide against its reference peptide in the pTyr-Var library screen with Fer.
[11] abbreviates: sheet "Src", effect of the variant peptide relative to its reference peptide in the pTyr-Var library screen.
[12] abbreviates: variant peptide relative to its reference peptide, pTyr-Var library screen enrichment.

Like-named read-outs stand apart in the source and are kept apart here. Square brackets hold non-standard residues; d marks the D form. pY = N[C@@H](Cc1ccc(OP(=O)(O)O)cc1)C(=O)O

For the molecule ADARMYGVLPR [PLP1_Y207_W212R], the figures for the Screen in assay [1] (setting [7]) and in assay [2] (setting [8]) were -3.205 and -2.437, respectively.
With AEFGLYAAMVR [VSX2_Y222_G223A_YF], the Screen is reported as -0.7281 in assay [1] (setting [7]); 2.617 in assay [3] (sheet "Abl", effect of variant peptide relative to its reference peptide in pTyr-Var library screen (enrichment)); 1.609 in assay [2] (setting [9]). Further, the “Screen (variant relative to reference peptide, measured in the pTyr-Var library screen)” value in assay [4] came to 1.956.
As for ALTDNYMFVVI [HAGH_Y61_L64V_YF], the Screen in assay [5] (setting [10]) is given as 0.9324; in assay [4] it was 0.4544; in assay [2] (setting [8]), 0.5365.
As to ASFSLYEPAKM [MKI67_Y340_P338S], the Screen in assay [1] (setting [11]) was -1.253; in assay [5] (setting [10]) it was -0.8096; in assay [4] it was -1.581; in assay [2] (setting [8]) it was -1.997.
As for AVIADYMFWLG [SPATA16_Y290_M286V], the Screen in assay [5] (setting [12]) is -0.04255; in assay [2] (setting [8]), -0.2895. Further, in assay [4], the “Screen (variant relative to reference peptide, measured in the pTyr-Var library screen)” value is on record as -0.3108.
On to CPPKVYELMIA [ABL2_Y515_R519I], for which the Screen in assay [1] is on record as 0.5796; in assay [5] (setting [10]), 0.2175; in assay [4], -0.2414; in assay [2] (setting [8]), -0.0581.
For the molecule DAHFTYSRFPW [LY75_Y888_D884A_YF], the values for the Screen in assay [1] (setting [11]), in assay [4] and in assay [2] (setting [8]) were 0.1806, -0.9728 and -0.5554, respectively.
For the molecule DNKALYDICFR [TUBB3_Y208_E205K], the Screen is -0.8548 in assay [1] (setting [7]), -1.219 in assay [5] (setting [12]) and -1.114 in assay [2] (setting [9]). The “Screen (variant relative to reference peptide, measured in the pTyr-Var library screen)” value in assay [4] is given as -0.6777.
For the molecule ELANLYHHVWM [BICD2_Y538_C542W], the Screen is 0.8025 in assay [1] (setting [11]); -0.8428 in assay [3] (fig5-data2, sheet "Abl", Screen for the variant/reference peptide pair, pTyr-Var library); 2.831 in assay [5] (setting [10]); 3.328 in assay [4]; 1.55 in assay [2] (setting [8]).
For FEELVYETVRV [FSHB_Y76_K72E], the Screen in assay [1] (setting [11]) is -0.8103; in assay [5] (setting [10]) it was -0.5222; in assay [4], -1.125; in assay [2] (setting [8]) it was -0.7932.
Regarding FGMQLYQKFMH [GRB14_Y347_N349K_YF], the Screen in assay [1] (setting [11]) is reported as -0.6929; in assay [5] (setting [10]) it was -1.436; in assay [4] it was -1.356; in assay [2] (setting [8]) it was -1.587.
Turning to GSESDYIIMPN [SCARB1_Y133_V135I], the “Screen (variant relative to reference peptide, measured in the pTyr-Var library screen)” value in assay [4] is -0.2975. Besides, the Screen in assay [2] (setting [8]) is -0.2465.
On to HLMLQYDAVVN [SLC25A32_Y152_R147H], for which the Screen in assay [5] (setting [12]) turned out to be 1.415; in assay [2] (setting [8]) it was 1.051.
Take HNVAIYEGFAL [ACTC1_Y168_P166A_YF]: the Screen was -0.2279 in assay [1] (setting [11]), -0.3735 in assay [5] (setting [10]), -1.018 in assay [4] and -1.285 in assay [2] (setting [8]).
As to IQRSLYDCPAS [PDGFRA_Y762_R764C], the Screen in assay [5] (setting [10]) was 2.142; in assay [4], 2.32; in assay [2] (setting [8]) it was 2.388.
Turning to LIGWRYDDPEV [HSPA9_Y128_R126W], the Screen in assay [2] (setting [8]) was -0.9592.
For LPPREYVVVPS [CAPN1_Y494_G492R], the Screen in assay [5] (setting [10]) was 0.6785; in assay [4], -0.6929; in assay [2] (setting [8]), -0.3372.
LQEQNYPAVDS [FAM114A1_Y115_L116P]: the Screen in assay [5] (setting [10]) was -1.861; in assay [4], -2.139; in assay [2] (setting [8]), -0.9591.
For the molecule MAPQMYESHLP [NCAPD2_Y6_F8S], the Screen in assay [5] (setting [10]) is -1.098; in assay [4] it was -3.091; in assay [2] (setting [8]), -2.267.
MGGSLYFSFPD [HIKESHI_Y55_V54L_YF]: the Screen was 0.1907 in assay [1] (setting [11]), 2.816 in assay [4] and 2.441 in assay [2] (setting [8]).
In the case of MKDLTYSSLCF [ALOX5_Y446_A447S], the Screen in assay [1] (setting [11]) was 0.1056; in assay [5] (setting [10]) it was 1.165; in assay [4] it was 0.1163; in assay [2] (setting [8]), 0.3665.
On to MWGSDYVHLSR [MAP3K4_Y582_Q584H], for which the Screen is on record as -1.547 in assay [4] and -2.255 in assay [2] (setting [8]).
Regarding PIAPVYAPSMV [ACAT1_Y331_A333P], the Screen in assay [1] was -0.325; in assay [5] (setting [10]), 1.079; in assay [4] it was -0.08214; in assay [2] (setting [8]), 0.3731.
Take QAPPIYLDVLG [NTRK1_Y791_V790I]: the Screen is listed as 1.261 in assay [1] (setting [7]), 2.26 in assay [5] (setting [10]), 1.721 in assay [4] and 1.355 in assay [2] (setting [8]).
On to QGFDTYFGFLL [ARSB_Y165_R160Q_YF], for which the Screen turned out to be 0.07217 in assay [1] (setting [11]), 0.9524 in assay [5] (setting [10]), 0.1277 in assay [4] and 0.8549 in assay [2] (setting [8]).
Consider QMVGMYAFSFM [AVPR2_Y124_S126F_YF], for which the Screen is given as -0.3615 in assay [1] (setting [11]), 2.024 in assay [5] (setting [10]), 0.9458 in assay [4] and 0.9949 in assay [2] (setting [8]).
QNTADYFDLFG [PTPN11_Y62_G60A_YF]: the Screen in assay [1] (setting [7]) is recorded as -1.145; in assay [4], -0.5569; in assay [2] (setting [8]), -0.5539.
Turning to QNTGNYFDLFG [PTPN11_Y62_D61N_YF], the Screen was -1.162 in assay [1] (setting [7]), 0.2097 in assay [4] and 0.1444 in assay [2] (setting [8]).
In the case of QPDLLYDHIQP [TRRAP_Y862_F860L], the Screen in assay [1] (setting [7]) came to 0.81; in assay [5] (setting [12]) it was 1.063; in assay [2] (setting [9]) it was 2.501. The “Screen (variant relative to reference peptide, measured in the pTyr-Var library screen)” value in assay [4] turned out to be 1.53.
QVQQIYSDSDL [MIB1_Y376_R371Q]: the Screen in assay [1] (setting [11]) worked out at 0.02886; in assay [5] (setting [10]), 0.8951; in assay [2] (setting [8]), 1.36.
As to RLEPVYFVAPA [LAMC2_Y250_D247E], the Screen was -0.2779 in assay [1] (setting [11]), 0.4539 in assay [4] and 0.4501 in assay [2] (setting [8]).
For the molecule RQQQDYWLMDV [ANPEP_Y600_I603M], the Screen in assay [5] (setting [10]) is -1.652; in assay [4], -0.3; in assay [2] (setting [8]), -0.2938.
For SAAAIYMVRHP [PMP22_Y117_T118M], the Screen is -0.2351 in assay [1] (setting [7]), 2.191 in assay [4] and 1.843 in assay [2] (setting [8]).
Turning to TSIGNYFKPWF [DHCR24_Y299_N294T_YF], the figures for the Screen in assay [4] and in assay [2] (setting [8]) were 0.02902 and -0.167, respectively.
Turning to TSKLSYLDPRI [TOP1_Y723_N722S], in assay [4], the “Screen (variant relative to reference peptide, measured in the pTyr-Var library screen)” value is on record as -2.938. Moreover, the Screen in assay [2] (setting [9]) is reported as -1.966.
As for VFDHIYTTQSD [RET_Y928_L923V], the Screen is -1.024 in assay [1] (setting [7]), -1.691 in assay [5] (setting [12]) and -2.18 in assay [2] (setting [8]).
On to VNNLVYENING [FRS2_Y306_K303N], for which the Screen in assay [1] (setting [11]) was determined as 1.603; in assay [5] (setting [10]) it was 1.713; in assay [4], 1.417; in assay [2] (setting [8]), 2.712.
Take VVTGPYEKPSL [KIR3DS1_Y221_L220P]: the Screen in assay [5] (setting [10]) is on record as -4.323; in assay [4], -2.822; in assay [2] (setting [8]) it was -3.858.
Take WASGIYFVPKG [APBB1IP_Y340_R335W_YF]: the Screen in assay [1] (setting [11]) is on record as 0.1676; in assay [5] (setting [10]) it was 2.226; in assay [4], 1.089; in assay [2] (setting [8]), 2.1.

B1: ACTB_Y240 phosphopeptide Ac-QSLEKS(pY)ELPDGG-NH2 (peptide)
peptide: Ac-QSLEKS[pY]ELPDGG-NH2
SMILES: CC(=O)N[C@@H](CCC(N)=O)C(=O)N[C@@H](CO)C(=O)N[C@@H](CC(C)C)C(=O)N[C@@H](CCC(=O)O)C(=O)N[C@@H](CCCCN)C(=O)N[C@@H](CO)C(=O)N[C@@H](Cc1ccc(OP(=O)(O)O)cc1)C(=O)N[C@@H](CCC(=O)O)C(=O)N[C@@H](CC(C)C)C(=O)N1CCC[C@H]1C(=O)N[C@@H](CC(=O)O)C(=O)NCC(=O)NCC(N)=O
notes: source: synthetic peptide (synthesized in-house, RP-HPLC purified)
For B1, the binding result in assay [6] is given as “binds”.

B2: ACTB_Y240_P243L phosphopeptide Ac-QSLEKS(pY)ELLDGG-NH2 (peptide)
peptide: Ac-QSLEKS[pY]ELLDGG-NH2
SMILES: CC(=O)N[C@@H](CCC(N)=O)C(=O)N[C@@H](CO)C(=O)N[C@@H](CC(C)C)C(=O)N[C@@H](CCC(=O)O)C(=O)N[C@@H](CCCCN)C(=O)N[C@@H](CO)C(=O)N[C@@H](Cc1ccc(OP(=O)(O)O)cc1)C(=O)N[C@@H](CCC(=O)O)C(=O)N[C@@H](CC(C)C)C(=O)N[C@@H](CC(C)C)C(=O)N[C@@H](CC(=O)O)C(=O)NCC(=O)NCC(N)=O
notes: as for B1
On to B2, for which the binding result in assay [6] was “binds”.
